Test results as given in PMC12350126, “A novel carboxamide bromodomain inhibitor attenuates osteoarthritis via epigenetic repression of NF-κB and MAPK signaling” (Frontiers in Immunology, 2025).

Tests used:
[1] = PK analysis after intravenous administration in SD rats; assay type: in vivo, rat; set-up: AUC: unit not given here; settings: for AUC(0-t) / Cmax / half-life: male, rat, plasma
Method: SD rats (male, 6 weeks old) were obtained from Orient Bio (Seoul, Korea) and housed under pathogen-free conditions. All animal procedures were conducted in accordance with the guidelines of the Animal Care Facility at Biotoxtech Co., Ltd. (Chungcheongbuk-do, Korea). NCD was administered intravenously (IV) to SD rats at doses of 5, 10, or 20 mg/kg to evaluate its pharmacokinetics. Blood samples were collected from the jugular vein at various time points, mixed with 3.8% (w/v) sodium citrate, and centrifuged at 8,000 × g for 30 min to obtain plasma. The plasma samples were then mixed with acetonitrile (33%, v/v), vortexed for 5 min, and centrifuged at 13,000 × g for 10 min. The concentration of NCD in plasma was determined using high-performance liquid chromatography (HPLC; Shimadzu, Japan) equipped with a UV detector. Pharmacokinetic parameters were calculated using Microsoft Excel ([31]).

BRD2 BD2 = molecular target: T1, BRD2 BD2 (Homo sapiens, UniProt P25440); assay: Biosensor binding kinetics assay (Octet), BRD2 BD2
T1 construct: biotinylated BRD2 BD1, BRD2 BD2; biotin (biotinylated protein); made in house; host or cells: Escherichia coli BL21(DE3)
T1 sequence (P25440 344-453 limits assumed): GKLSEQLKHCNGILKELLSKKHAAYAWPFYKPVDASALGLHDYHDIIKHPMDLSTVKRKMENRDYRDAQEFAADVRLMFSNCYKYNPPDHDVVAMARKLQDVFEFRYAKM
Method: Binding kinetics were assessed using the Octet® R2 system (Sartorius, Göttingen, Germany). Superstreptavidin biosensors were loaded with biotinylated BRD2 BD1, BRD2 BD2, BRD3 BD1, BRD3 BD2, BRD4 BD1, BRD4 BD2, or biotin alone (as a negative control) in PBST buffer (phosphate-buffered saline containing 0.02% Tween 20 and 5% DMSO). The sensors were then dipped into compound solutions for 10 min. To evaluate association kinetics (kon), each sensor was exposed to serial dilutions of the protein for 180 s, followed by dipping them into PBST buffer to assess dissociation kinetics (koff). For control, a separate sensor loaded with the compound was dipped into PBST alone. Competition binding assays were performed by exposing the compound-loaded sensor to mixtures of proteins and test compounds.

CNC(=O)CC1C(=O)NCCN1Cc1ccc(-c2ccccc2-c2cccc3c2CN(C)C3=O)o1 (stereo not drawn) [NCD, N-methyl-2-(1-((5-(2-(2-methyl-1-oxoisoindolin-4-yl)phenyl)furan-2-yl)methyl)-3-oxopiperazin-2-yl)acetamide]
AUC ([1]; 5 mg/kg): 631.83 | AUC ([1]; 20 mg/kg): 4526.66 | AUC(0-t) ([1]; 5 mg/kg): 632 ng·h/mL | Cmax ([1]; 5 mg/kg): 1110 ng/mL | half-life ([1]; 5 mg/kg): 24.6 min | AUC(0-t) ([1]; 10 mg/kg): 1730 ng·h/mL | Cmax ([1]; 10 mg/kg): 2560 ng/mL | half-life ([1]; 10 mg/kg): 35.4 min | AUC(0-t) ([1]; 20 mg/kg): 4530 ng·h/mL | Cmax ([1]; 20 mg/kg): 4150 ng/mL | half-life ([1]; 20 mg/kg): 45.6 min | Kd (BRD2 BD2): 104 nM
